According to ChEMBL document CHEMBL4321858 (J Med Chem, 2019):
In brackets after ≈: the same amount, converted by molar mass.

How the values were obtained:
[1] = Thermodynamic solubility of compound at pH 6.5; type: physicochemical; details: buffer; for solubility thermodynamic: read-out: Therm_solubility
[2] = Oral bioavailability in Wistar rat at 2 mg/kg; type: ADME, organism-based; details: in vivo
[3] = Lipophilicity, logD of compound at pH 7.5 by RP-HPLC analysis; type: physicochemical; details: buffer
[4] = AUC in Wistar rat at 0.5 mg/kg, iv; type: ADME, organism-based; details: in vivo
[5] = Volume of distribution at steady state in Wistar rat at 0.5 mg/kg, iv; type: ADME, organism-based; details: in vivo, read-out: Vdss
[6] = Apparent permeability across apical to basolateral side in human Caco2 cells at 2 uM after 2 hrs by LC/MS-MS analysis; type: ADME, cell-based; details: Caco-2
[7] = Unbound drug level in plasma of CFA induced C57BL/6N mouse at 25 mg/kg, po after 1 hr; type: ADME, organism-based; details: in vivo
[8] = Unbound drug level in plasma of CFA induced C57BL/6N mouse at 50 mg/kg, po after 1 hr; type: ADME, organism-based; details: in vivo
[9] = Unbound drug level in plasma of CFA induced C57BL/6N mouse at 50 mg/kg, po after 80 mins; type: ADME, organism-based; details: in vivo
[10] = AUC in Wistar rat at 1 mg/kg, iv; type: ADME, organism-based; details: in vivo
[11] = Unbound drug level in plasma of CFA induced C57BL/6N mouse at […], po after 1 hr; type: ADME, organism-based; details: in vivo
[12] = Volume of distribution at steady state in Wistar rat at 1 mg/kg, iv; type: ADME, organism-based; details: in vivo, read-out: Vdss

Row | Compound | solubility thermodynamic [1] [µg/mL] | bioavailability [2] [%] | logD [3] | Papp A→B at 2 h, 2 µM [6] [×10⁻⁶ cm/s] | further results
1 | NS(=O)(=O)c1cc(NC(=O)Cc2ccccc2Cl)ccc1OCc1ccccc1 |  |  |  |  | Therm_solubility [1]: Insoluble
2 | NS(=O)(=O)c1cc(NC(=O)Cc2ccccc2Cl)ccc1OCC1CCOCC1 | 21 (≈ 47.8 µM) | 21 | 2.2 | 5.3 | AUC [4]: 0.37 kg·h/L; Vd [5]: 1.23 L/kg
3 | NS(=O)(=O)c1cc(NC(=O)Cc2ccccc2)ccc1Oc1cccc(Cl)c1 [BAY-1797] | 16 (≈ 38.4 µM) | 43 | 2.8 | 13.2 | Cp(f) [7]: 374 nM; Cp(f) [8]: 672 nM; Cp(f) [9]: 548 nM; AUC [10]: 1.06 kg·h/L; Cp(f) [11]: 186 nM; Vd [12]: 2.77 L/kg
4 | NS(=O)(=O)c1cc(NC(=O)Cc2cc(F)ccc2Cl)ccc1OCC1CCOCC1 | 24 (≈ 52.5 µM) | 44 | 2.2 | 4.3 | AUC [4]: 1.11 kg·h/L; Vd [5]: 0.82 L/kg
5 | NS(=O)(=O)c1cc(NC(=O)Cc2ccccc2Cl)ccc1Oc1ccc(-c2nccs2)cc1 | 1 (≈ 2 µM) |  |  |  | 
6 | NS(=O)(=O)c1cc(NC(=O)Cc2ccccc2C(F)(F)F)ccc1Oc1cccc(Cl)c1 |  |  | 3.3 |  | 
7 | NS(=O)(=O)c1cc(NC(=O)Cc2ccccc2Cl)ccc1Oc1cccc(Cl)c1 | 7 (≈ 15.5 µM) |  | 3 |  | 
8 | NS(=O)(=O)c1cc(NC(=O)Cc2c(F)cccc2Cl)ccc1Oc1cccc(Cl)c1 | 0.7 (≈ 1.49 µM) |  |  |  | 
